Reference: PMC7649969, “Pyrazolyl-pyrimidones inhibit the function of human solute carrier protein SLC11A2 (hDMT1) by metal chelation” (RSC Medicinal Chemistry, 2020)
Where two headings read alike, the source gives them in different places.

How the values were obtained:
[1] = acid-base titration with NaOH; type: physicochemical; conditions: Milli-Q water with 10% DMSO, ~2 mM compound
Description: Fig. 6 (a) Acid–base titration of 3, 5, 13 and neutral and basic forms of 3, 5, 13. (20 μmol of compound in 10 mL (10% DMSO, ∼2 mM), 3 and 5 were acidified with HCl (50 μmol)). (b) Acid-base equilibria for inhibitors 3, 5 and 13 highlighting potentially metal chelating nitrogen atoms in red. (c) TMAP of our inhibitors combined with 169 pyrazolyl-pyrimidones and 1717 pyrazolyl-pyridines found in ChEMBL, color coded by source: cyan = pyrazolyl-pyridines from ChEMBL, blue = pyrazolyl-pyrimidones from ChEMBL, red = this work. Insert: Close-up view around pyrazolyl-pyrimidones color-coded by target class: red = transporter, cyan = enzyme, magenta = unclassified protein, grey = unclassified target. The interactive TMAP including further color-codes (target classes, QED, etc.) is accessible at:; http://tm.gdb.tools/dmt1_inhibitors/pyrimidones_pyridines/ […]
Milli-Q water, 1 mL DMSO and 0.5 mL HCl 0.1 M (Final concentration of 2 mM). Compound
13 (HCl salt, 200 µL, 0.1 M in DMSO) was dissolved in 0.8 mL DMSO and […] Milli-Q
water. Then, a solution of 0.1 M NaOH was added by steps of 2 µL with a Dosimat plus
(Metrohm, Zofingen, Switzerland) and pH was measured using a 692 pH/ion meter (Metrohm).

[2] = target: T1, hDMT1 (Homo sapiens, UniProt P49281); assay: 55Fe2+ uptake by HEK293T cells transiently transfected with hDMT1; type: cell-based; parameters: DsRED; expressed in transfected cells; host or cells: HEK293T (ATCC CRL-3216), transient transfection with Lipofectamine 2000; conditions: for inhibition of 55Fe2+ uptake by hDMT1: compound 10 μM, 55Fe2+ 1 μM, pH 5.5, HEK293T; for IC50: HEK293T transiently transfected with hDMT1, 55Fe2+ 1 μM, pH 5.5
T1 sequence (P49281 1-568): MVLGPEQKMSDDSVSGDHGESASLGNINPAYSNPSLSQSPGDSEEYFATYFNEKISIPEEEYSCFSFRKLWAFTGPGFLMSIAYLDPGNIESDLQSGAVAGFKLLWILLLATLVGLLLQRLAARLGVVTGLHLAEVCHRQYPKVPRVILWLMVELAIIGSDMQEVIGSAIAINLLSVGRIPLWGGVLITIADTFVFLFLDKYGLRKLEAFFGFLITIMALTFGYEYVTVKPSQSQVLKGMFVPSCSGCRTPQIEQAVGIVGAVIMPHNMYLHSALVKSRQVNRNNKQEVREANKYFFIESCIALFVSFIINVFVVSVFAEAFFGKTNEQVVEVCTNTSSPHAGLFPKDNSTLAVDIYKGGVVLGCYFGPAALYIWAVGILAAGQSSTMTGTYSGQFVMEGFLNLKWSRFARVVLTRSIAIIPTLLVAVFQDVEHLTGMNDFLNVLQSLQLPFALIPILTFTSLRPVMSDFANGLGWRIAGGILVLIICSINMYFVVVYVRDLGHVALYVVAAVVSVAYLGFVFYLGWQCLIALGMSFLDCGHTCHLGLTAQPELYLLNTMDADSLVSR
Excerpt: Complex formation with Fe^2+ should result in non-selective inhibition of different metal transporters. To test this hypothesis, we investigated whether human SLC39A8 (hZIP8), a transporter of Zn^2+ and Fe^2+ unrelated to SLC11 family, might also be inhibited by our hDMT1 inhibitors. Both SLCs can be tested by inhibition of radioactive iron uptake into HEK293 cells expressing the transporter, at pH 5.5 for hDMT1 and at pH 7.4 for hZIP8.
Fig. 5 Cross reactivity of hDMT1 inhibitors over the functional activity of the divalent metal transporter hZIP8. (a) ^55Fe^2+ uptake (1 μM) by HEK293T cells (source: American Type Culture Collection, catalog no. CRL-3216) transiently transfected with the empty vector (Ev), hDMT1 or hZIP8. Uptake assay was performed at the optimal pH for the functional activity of each transporter (pH 5.5 and pH 7.4 respectively). The indicated compounds (10 μM) were pre-incubated for 5 min, and then, for 15 min with both compound and ^55Fe^2+. Measured ^55Fe^2+ was corrected by subtracting the background iron uptake measured in non-transfected cells. The data was normalized to the Fe^2+ uptake measured in the presence of DMSO (0.1%) and represented as mean ± SD (N = 5–16; obtained from 2 independent experiments). IC50 determination for pyrazolyl-pyrimidone 13 (b) and bipyridine (c) in HEK293T cells transiently transfected with hDMT1 (left panels) or hZIP8 (right panels). ^55Fe^2+ uptake (1 μM) was measured in the presence of the indicated compound concentration ranges, and the measurements were corrected by subtracting the background iron uptake measured in non-transfected cells. IC50 values were calculated by fitting the data to a sigmoidal 4-parameter equation. Representative experiments are depicted, while IC50 values were calculated as mean ± SD of 3 different experiments.
Chemicals and reagents were purchased from Merck, except where indicated otherwise.
Cell Culture. Cellular experiments where conducted either with a HEK293 cell line (ATCC) stably expressing DsRED-hDMT1 plasmid or HEK293T cells (ATCC) transiently transfected with DsRED-hZIP8 or DsRED-hDMT1 plasmids. The cell line stably expressing hDMT1 was generated as described in previous works1,2. In both cases, cells were cultured in Dulbecco´s modified Eagle´s medium (DMEM) supplemented with 10 % foetal bovine serum (FBS), 10 mM HEPES and 1 mM Na-pyruvate under standard cell culture conditions (37 °C, 95 % humidity and air containing 5 % CO2). When culturing the hDMT1 overexpressing cell line, to maintain stable the expression of the exogenous plasmid, culture media was also supplemented with […] geneticin (Life Technologies). […]
Radiolabelled iron uptake assay. Cells were seeded in clear bottom, white-well, poly-D-lysine coated 96-well plates (Corning). HEK293 cells stably over-expressing hDMT1 were seeded 24 hours before the experiment at a density of 50,000 cells/well. HEK293T cells were seeded at 30,000 cells/well 48 hours before the experiment, and 24 hours after were transfected […]
using Lipofectamine 2000 (Life technologies) as described in the manufacturer’s protocol.
Before the uptake assay, culture media was aspirated and the cells were washed with the uptake solution (140 mM NaCl, 2.5 mM KCl, 1 mM CaCl2, 1 mM MgCl2, 1.2 mM K2HPO4, 10 mM glucose, 5 mM HEPES, 5 mM MES, pH 7.4). To determine the iron uptake, the cells were incubated for 15 min at room temperature (RT) with uptake solution (pH 5.5) supplemented with 100 µM Ascorbic acid, and the indicated amount of non-radioactive Ferrous iron (Fe2+) and radiolabelled 55Fe2+ (American Radiolabelled) (0.5 µCi/mL). To stop the uptake process, the solution containing the radiotracer was removed and cells were washed with ice-cold uptake solution (pH 7.5). To determine the iron accumulated within the cells during the incubation time, the scintillation cocktail Mycrosinth 20 (PerkinElmer) was added to each well, and the cells were incubated during 1 hour at RT under constant agitation. […]

SMILES	pKa ([1]; read-out: pKa1)	pKa ([1]; read-out: pKa2)	inhibition of 55Fe2+ uptake by hDMT1 [2]	IC50 [2]
Cc1cc(O)nc(-n2nc(C)cc2C)n1 [Compound 5]	3.6	6.5	inhibited both transporters	
N=C(N)SCc1cccc2c1oc1c(CSC(=N)N)cccc12 [Compound 1, reference compound]			only inhibited hDMT1	
c1ccc(-c2ccccn2)nc1 [bipyridine]			inhibited both transporters	~6.5 µM
Cc1cc(=O)[nH]c(-n2nc3c(c2C)CCCC3)n1 [Compound 13]	3.3	7	inhibited both transporters	~1.1 µM
Cc1nn(-c2ccccn2)c(O)c1C(=O)Nc1cccc(C(F)(F)F)c1 [Compound 3, reference compound]	3.3	6.7	inhibited both transporters	
